Results: patent publication US20250257034A1, “INDOLE DERIVATIVES AS SEROTONERGIC AGENTS USEFUL FOR THE TREATMENT OF DISORDERS RELATED THERETO” (priority 2023, published 2025)
Like-named read-outs stand apart in the source and are kept apart here.

Molecular target: T1, human 5-HT1A receptor (Homo sapiens, UniProt P08908)
T1 sequence (P08908 1-422): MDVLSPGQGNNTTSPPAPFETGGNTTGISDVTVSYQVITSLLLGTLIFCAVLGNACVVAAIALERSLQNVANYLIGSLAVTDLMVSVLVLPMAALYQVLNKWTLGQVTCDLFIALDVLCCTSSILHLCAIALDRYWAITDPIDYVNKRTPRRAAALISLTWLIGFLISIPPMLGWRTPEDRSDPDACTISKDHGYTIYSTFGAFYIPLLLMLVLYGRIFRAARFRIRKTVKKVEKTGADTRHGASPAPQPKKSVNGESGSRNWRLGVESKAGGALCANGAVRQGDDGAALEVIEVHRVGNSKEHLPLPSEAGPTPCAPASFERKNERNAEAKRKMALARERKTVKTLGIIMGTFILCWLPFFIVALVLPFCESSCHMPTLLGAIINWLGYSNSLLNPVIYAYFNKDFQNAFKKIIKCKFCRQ
Assay: Human 5-HT1A functional FLIPR assay (agonist mode)
Format: cell-based
Set-up: expressed in transfected cells; host or cells: HTR1A&Gα15-CHO
Experimental: The potential excitatory effects of compounds targeting on 5-hydroxytryptamine receptor 1A (5-HT1A) under agonist mode was assessed.
HTR1A&Gα15-CH0 cells were cultured in DMEM/F12 medium containing 10% dialyzed FBS, 1×penicillin-streptomycin and 600 μg/mL Hygromycin B. The cells were passaged about three times a week, maintained between ˜30% to ˜90% confluence.
1. The cell culture medium (DMEM/F12 medium containing 10% dialyzed FBS, 1×penicillin-streptomycin and 600 μg/mL Hygromycin B), TrypLE™ Express and DPBS was warmed to R.T. in advance.
2. The cell culture medium was removed from flask. Washed cells with DPBS.
3. 1 mL TrypLE™ Express was added to the flask, mixed well by gentle shaking and cells were incubated at 37° C. for a few minutes.
4. The cells were checked for morphological change under microscope, the digestion was stopped by adding 2 mL cell culture medium to the flask when most of cells turned to round.
5. The cell suspension was transferred into a 15 mL centrifuge tube, and then centrifuged at 1,200 rpm for 5 minutes.
6. The supernatant was removed. The cell pellets were resuspended with 2 mL cell culture medium.
7. The cell density was counted using a cell counter.
8. Cells were diluted to 4×10^5/mL with cell culture medium.
9. 30 μL/well cell suspensions were added into a 384-well cell plate (the cell density was 12,000 cells/well).
10. The cell plate was incubated overnight at 37° C., 5% (v/v) CO2.
1. On the day of experiments, culture medium was removed from the cell plate.
2. 10 μL of assay buffer (20 mM HEPES, in 1x HBSS, pH 7.4) was added to each well of the cell plate.
3. 2×dye solution was prepared following the manufacturer's instruction of the FLIPR® Calcium 6 assay kit: • i. The dye was diluted with assay buffer. • ii. probenecid was added to the final concentration of 5 mM. • iii. Vortexed vigorously for I-2 minutes, adjust pH to 7.4.
4. 10 μL of 2×dye solution was added to each well of the cell plate.
5. The cell plate was placed on plate shaker, followed by shaking at 600 rpm for 2 minutes.
6. The plate was incubated at 37° C. for 2 hours followed by an additional 15-minute incubation at 25° C.
1. Serotonin was prepared to the concentration of 10 mM with DMSO, 3-folds serial dilutions were performed with DMSO.
2. Prepared the test compound to the concentration of 10 mM with DMSO, preform 3-folds serial dilutions with DMSO.
3. The compounds were added to a 384-well compound source plate.
4. 90 nL/well of serial diluted compounds were transferred from source plate to a 384-well compound plate by using an Echo.
5. 30 μL/well of assay buffer was added to the compound plate.
6. The plate was mixed on-plate shaker for 2 minutes.
1. After the cells incubated with dye solution, the cell plate, compound plate containing 3×compounds and F LIP R tips were placed into F LIP R.
2. 10 μL of 3×compounds were transferred from the compound plate to the cell plate by F LIP R.
3. The plate was read for 160 sec with 1 sec interval to obtain the data of agonist mode.
1. The normalized fluorescence reading (RFU) was calculated as shown below, wherein Fmax and Fmin stand for maximum and minimum of calcium signal during defined time window:
2. EC50 was calculated by fitting RFU against log of compound concentrations with Hill equation using XLfit.
HTR1A&Gα15-C H0 cells were cultured in DMEM/F 12 medium containing 10% dialyzed FBS, 1x penicillin-streptomycin and 600 μg/mL Hygromycin B. The cells were passaged about three times a week, maintained between ˜30% to ˜90% confluence.
1. The cell culture medium (DMEM/F 12 medium containing 10% dialyzed FBS, 1x penicillin-streptomycin and 600 μg/mL Hygromycin B), TrypLE™ Express and DPBS was warmed to R.T. in advance.
7. The cell density was counted using cell counter.
9. 30 μL/well cell suspensions were added into a 384-well cell plate (The cell density was 12,000 cells/well).
3. 2×dye solution was prepared following the manufacture's instruction of the F LIP R® Calcium 6 assay kit: • i.

Structure (SMILES)	RFU@10 μM (RFU=Fmax−Fmin (Table 47))	EC50 [µM]	RFU@10 μM (RFU=Fmax−Fmin (Table 18))	EC50 (FLIPR calcium, agonist mode, HTR1A&Gα15-CHO cells (Table 47), read-out: h5-HT1A, EC50) [µM]
CN(C)CCc1c[nH]c2ccc(OCCOC(F)F)cc12 [Compound I-128, 2-(5-(2-(Difluoromethoxy)ethoxy)-1H-indol-3-yl)-N,N-dimethylethan-1-amine]	314 RFU			
[2H]C([2H])([2H])N(CCc1c[nH]c2ccc(SC)cc12)C([2H])([2H])[2H] [Compound I-1, N,N-Bis(methyl-d3)-2-(5-(methylthio)-1H-indol-3-yl)ethan-1-amine]		0.928	2,858 RFU	
CSc1ccc2[nH]cc(CCN(C)C(C)C)c2c1 [Compound I-19, N-Methyl-N-(2-(5-(methylthio)-1H-indol-3-yl)ethyl)propan-2-amine]		3.87	2,161 RFU	
COc1ccc2[nH]cc(CCN(C)CCOC(F)F)c2c1 [Compound I-71, 2-(Difluoromethoxy)-N-(2-(5-methoxy-1H-indol-3-yl)ethyl)-N-methylethan-1-amine]	3,087 RFU			1.84
CN(C)CCc1c[nH]c2ccccc12 [DMT]	204 RFU		204 RFU	
CCN(C)CCc1c[nH]c2ccc(SC)cc12 [Compound I-13, N-Ethyl-N-methyl-2-(5-(methylthio)-1H-indol-3-yl)ethan-1-amine]		0.693	4,279 RFU	
CCN(CC)CCc1c[nH]c2ccc(SC)cc12 [Compound I-12, N,N-Diethyl-2-(5-(methylthio)-1H-indol-3-yl)ethan-1-amine]		0.675	3,735 RFU	
CSc1ccc2[nH]cc(CCN(C(C)C)C(C)C)c2c1 [Compound I-17, N-Isopropyl-N-(2-(5-(methylthio)-1H-indol-3-yl)ethyl)propan-2-amine]		3.38	2,289 RFU	
COc1ccc2[nH]cc(CCN3CC[C@H](OC(F)F)C3)c2c1 [(S) I-67, (S)-3-(2-(3-(Difluoromethoxy)pyrrolidin-1-yl)ethyl)-5-methoxy-1H-indole]	3,930 RFU	0.187		
COc1ccc2[nH]cc(CCN3CC[C@@H](OC)C3)c2c1 [(R) I-66, (R)-5-methoxy-3-(2-(3-methoxypyrrolidin-1-yl)ethyl)-1H-indole]	3,690 RFU	0.977		
CN(CCOC(F)F)CCc1c[nH]c2ccccc12 [Compound I-130, N-(2-(1H-Indol-3-yl)ethyl)-2-(difluoromethoxy)-N-methylethan-1-amine]	163 RFU			
COc1ccc2[nH]cc(CCN3CC[C@@H](OC(F)F)C3)c2c1 [(R) I-67, (R)-3-(2-(3-(Difluoromethoxy)pyrrolidin-1-yl)ethyl)-5-methoxy-1H-indole]	3,988 RFU	1.6		
